# Reference: ChEMBL document CHEMBL4831522, “Structure-Based Optimization of Quinazolines as Cruzain and TbrCATL Inhibitors” (J Med Chem, 2021)
# Active and inactive are the calls of the source. No cut-off for these calls is given here.
# Tests used:
# [1] = molecular target: Cruzipain (Trypanosoma cruzi) (UniProt P25779); assay: Inhibition of recombinant Trypanosoma cruzi cruzain using Z-FR-AMC as substrate and compound-enzyme complex preincubated for 5 mins in presence of 0.1% Triton-X100 by fluorometry relative to control
# Sequence of Cruzipain (Trypanosoma cruzi) (P25779 123-467 limits assumed): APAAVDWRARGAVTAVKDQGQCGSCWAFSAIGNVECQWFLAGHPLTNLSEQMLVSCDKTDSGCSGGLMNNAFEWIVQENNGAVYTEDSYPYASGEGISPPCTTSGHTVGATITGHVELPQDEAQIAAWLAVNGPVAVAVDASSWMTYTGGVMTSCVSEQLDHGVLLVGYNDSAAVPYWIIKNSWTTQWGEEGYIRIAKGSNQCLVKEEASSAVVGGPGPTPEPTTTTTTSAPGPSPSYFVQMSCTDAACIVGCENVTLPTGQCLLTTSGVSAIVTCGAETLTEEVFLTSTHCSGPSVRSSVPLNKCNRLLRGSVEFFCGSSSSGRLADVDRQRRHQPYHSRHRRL
# [2] = Selectivity index, ratio of CC50 for cytotoxicity against mouse C2C12 cells to EC50 for trypanocidal activity against Trypanosoma cruzi […] infected in mouse C2C12 cells; type: toxicity, cell-based; conditions: read-out: Selectivity Index
# [3] = molecular target: Cruzipain (Trypanosoma cruzi) (UniProt P25779); assay: Inhibition of recombinant Trypanosoma cruzi cruzain using Z-FR-AMC as substrate and compound-enzyme complex preincubated for 5 mins in presence of 0.001% Triton-X100 by fluorometry relative to control
# [4] = molecular target: T1, Cruzipain (Trypanosoma cruzi, UniProt P25779); assay: Inhibition of recombinant Trypanosoma cruzi cruzain using Z-FR-AMC as substrate preincubated for 10 mins followed by substrate addition by fluorometry
# T1 sequence (P25779 whole entry): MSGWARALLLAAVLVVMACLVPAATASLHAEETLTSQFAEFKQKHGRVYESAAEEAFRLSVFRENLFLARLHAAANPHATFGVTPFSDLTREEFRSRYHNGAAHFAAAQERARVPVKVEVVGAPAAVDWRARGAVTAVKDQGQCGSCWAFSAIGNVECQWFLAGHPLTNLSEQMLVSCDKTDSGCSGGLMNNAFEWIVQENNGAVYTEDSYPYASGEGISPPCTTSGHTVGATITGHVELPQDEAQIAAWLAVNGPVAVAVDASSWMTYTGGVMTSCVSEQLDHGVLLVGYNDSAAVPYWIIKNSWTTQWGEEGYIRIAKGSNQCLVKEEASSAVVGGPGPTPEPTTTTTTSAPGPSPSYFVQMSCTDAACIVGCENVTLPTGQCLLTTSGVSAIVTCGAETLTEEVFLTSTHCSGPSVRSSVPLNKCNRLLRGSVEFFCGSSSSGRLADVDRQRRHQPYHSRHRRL
# [5] = tested on: Trypanosoma cruzi; assay: Trypanocidal activity against amastigotes form of Trypanosoma cruzi CA-I/72 infected in mouse C2C12 cells assessed as inhibition of parasite replication incubated for 48 hrs by DAPI staining based microscopic analysis; type: functional, organism-based; conditions: CA-I/72, C2C12, 48 h
# [6] = Cytotoxicity against mouse C2C12 cells; type: cell-based
# [7] = molecular target: Cruzipain (Trypanosoma cruzi) (UniProt P25779); assay: Inhibition of recombinant Trypanosoma cruzi cruzain using Z-FR-AMC as substrate and compound-enzyme complex preincubated for 5 mins in presence of 0.01% Triton-X100 by fluorometry relative to control
# [8] = molecular target: Cruzipain (Trypanosoma cruzi) (UniProt P25779); assay: Inhibition of recombinant Trypanosoma cruzi cruzain at 50 uM using Z-FR-AMC as substrate preincubated for 10 mins followed by substrate addition by fluorometry relative to control
# [9] = tested on: Trypanosoma brucei brucei; assay: Antitrypanosomal activity against Trypanosoma brucei brucei Lister 427 bloodstream forms measured after 72 hrs by SYBR green dye based assay; type: functional, organism-based; conditions: Lister 427, 72 h
# [10] = molecular target: Rhodesain (Trypanosoma brucei rhodesiense) (UniProt Q95PM0); assay: Inhibition of recombinant Trypanosoma brucei rhodesiense MVAT4 rhodesain expressed in Pichia pastoris at 50 uM using Z-FR-AMC as substrate preincubated for 10 mins followed by substrate addition by fluorometry relative to control
# Sequence of Rhodesain (Trypanosoma brucei rhodesiense) (Q95PM0 1-450): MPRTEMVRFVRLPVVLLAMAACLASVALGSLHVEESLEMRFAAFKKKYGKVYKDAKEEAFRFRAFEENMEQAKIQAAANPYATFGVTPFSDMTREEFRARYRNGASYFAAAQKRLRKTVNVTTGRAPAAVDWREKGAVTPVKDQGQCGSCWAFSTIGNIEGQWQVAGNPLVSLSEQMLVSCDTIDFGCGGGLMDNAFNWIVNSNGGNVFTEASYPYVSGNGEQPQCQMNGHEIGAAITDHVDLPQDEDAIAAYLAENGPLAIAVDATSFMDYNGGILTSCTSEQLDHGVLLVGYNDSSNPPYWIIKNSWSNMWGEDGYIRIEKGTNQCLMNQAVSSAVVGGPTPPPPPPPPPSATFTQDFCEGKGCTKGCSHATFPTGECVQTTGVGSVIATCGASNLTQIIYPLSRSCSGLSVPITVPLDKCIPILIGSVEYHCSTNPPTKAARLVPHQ
# [11] = molecular target: Cruzipain (Trypanosoma cruzi) (UniProt P25779); assay: Inhibition of recombinant Trypanosoma cruzi cruzain using Z-FR-AMC as substrate when compound was preincubated for 5 mins in presence of BSA and 0.001% Triton-X100 followed by further incubation for 5 mins in presence of enzyme relative to control; conditions: time 10.0 min
# [12] = molecular target: T1, Cruzipain; assay: Inhibition of recombinant Trypanosoma cruzi cruzain using Z-FR-AMC as substrate by fluorometry
# [13] = molecular target: Rhodesain (Trypanosoma brucei rhodesiense) (UniProt Q95PM0); assay: Inhibition of recombinant Trypanosoma brucei rhodesiense MVAT4 rhodesain expressed in Pichia pastoris at 100 uM using Z-FR-AMC as substrate by fluorometry relative to control
# [14] = molecular target: Cruzipain (Trypanosoma cruzi) (UniProt P25779); assay: Inhibition of recombinant Trypanosoma cruzi cruzain at 100 uM using Z-FR-AMC as substrate by fluorometry relative to control
# [15] = molecular target: Cruzipain (Trypanosoma cruzi) (UniProt P25779); assay: Competitive inhibition of Trypanosoma cruzi cruzain assessed as unchanged initial velocity up to 25 uM using varying levels of Z-FR-AMC as substrate by Michaelis-Menten analysis; conditions: dose microM <=25
# [16] = molecular target: T1, Cruzipain; assay: Competitive inhibition of Trypanosoma cruzi cruzain assessed as inhibition constant using varying levels of Z-FR-AMC as substrate by Michaelis-Menten analysis
# [17] = molecular target: Rhodesain (Trypanosoma brucei rhodesiense, UniProt Q95PM0); assay: Inhibition of recombinant Trypanosoma brucei rhodesiense MVAT4 rhodesain expressed in Pichia pastoris using Z-FR-AMC as substrate by fluorometry
# Sequence of Rhodesain (Q95PM0 whole entry): as the sequence (Q95PM0 1-450) above
# [18] = molecular target: Cruzipain (Trypanosoma cruzi) (UniProt P25779); assay: Competitive inhibition of Trypanosoma cruzi cruzain assessed as increase in apparent Kapp up to 25 uM using varying levels of Z-FR-AMC as substrate by Michaelis-Menten analysis; conditions: dose microM <=25
# [19] = molecular target: Cruzipain (Trypanosoma cruzi) (UniProt P25779); assay: Inhibition of recombinant Trypanosoma cruzi cruzain at 20 uM using Z-FR-AMC as substrate by fluorometry relative to control
# [20] = molecular target: Rhodesain (Trypanosoma brucei rhodesiense) (UniProt Q95PM0); assay: Inhibition of recombinant Trypanosoma brucei rhodesiense MVAT4 rhodesain expressed in Pichia pastoris at 1 uM using Z-FR-AMC as substrate by fluorometry relative to control
# [21] = molecular target: Rhodesain (Trypanosoma brucei rhodesiense) (UniProt Q95PM0); assay: Time dependent inhibition of recombinant Trypanosoma brucei rhodesiense MVAT4 rhodesain expressed in Pichia pastoris at 100 uM using Z-FR-AMC as substrate by fluorometry; conditions: time 10.0 min
# [22] = molecular target: Cruzipain (Trypanosoma cruzi) (UniProt P25779); assay: Inhibition of recombinant Trypanosoma cruzi cruzain at 100 uM using Z-FR-AMC as substrate preincubated for 10 mins followed by substrate addition by fluorometry relative to control
# [23] = molecular target: Cruzipain (Trypanosoma cruzi) (UniProt P25779); assay: Time dependent inhibition of recombinant Trypanosoma cruzi cruzain at 100 uM using Z-FR-AMC as substrate by fluorometry; conditions: time 10.0 min
# [24] = molecular target: Rhodesain (Trypanosoma brucei rhodesiense) (UniProt Q95PM0); assay: Inhibition of recombinant Trypanosoma brucei rhodesiense MVAT4 rhodesain expressed in Pichia pastoris at 20 uM using Z-FR-AMC as substrate by fluorometry relative to control
inhibition [1],inhibition [3],inhibition [7],EC50 [9],inhibition [11],inhibition [13],inhibition [14],SMILES,selectivity ratio [2],EC50 [5],CC50 [6],IC50 [12],also measured
81%,71%,84%,16.3 µM,62%,,,c1ccc(Nc2nc(Nc3ccccc3)c3ccccc3n2)cc1,> 11,0.9 µM,> 10 µM,,IC50 [4]: 14 µM; inhibition [8]: 30%; inhibition [10]: 14%
35%,47%,36%,9 µM,35%,63%,87%,OCCCNc1nc(Nc2ccc(Cl)cc2)nc2ccccc12,> 40,0.25 µM,> 10 µM,7.3 µM,
,,,0.026 µM,,,,N=C(N)c1ccc(OCCCCCOc2ccc(C(=N)N)cc2)cc1 [PENTAMIDINE],,,,,
,,,> 50 µM,,22%,67%,OCCCNc1nc(NCCN2CCOCC2)c2ccccc2n1,> 0.3,35 µM,> 10 µM,,
,,,2.7 µM,,29%,84%,O=C(Nc1ccccc1)c1ccc(Nc2nc(NCCN3CCOCC3)c3ccccc3n2)cc1,> 12,0.8 µM,> 10 µM,,
69%,53%,53%,> 50 µM,51%,62%,90%,O=C(c1ccc(Nc2nc(NCCCO)c3ccccc3n2)cc1)N1CCOCC1,> 0.5,22 µM,> 10 µM,15 µM,
33%,25%,31%,> 50 µM,30%,47%,100%,OCCCNc1nc(NCc2ccccc2)c2ccccc2n1,> 193,0.5 µM,> 10 µM,22 µM,
73%,49%,63%,> 50 µM,42%,36%,85%,O=C(c1ccc(Nc2nc(NCCN3CCOCC3)c3ccccc3n2)cc1)N1CCOCC1,> 1,15 µM,> 10 µM,13.5 µM,
64%,58%,67%,17.8 µM,57%,56%,89%,OCCCNc1nc(Nc2cccc(F)c2)c2ccccc2n1,> 109,0.09 µM,> 10 µM,25 µM,
,,,> 50 µM,,10%,100%,c1ccc(CNc2nc(Nc3ccccn3)nc3ccccc23)cc1,> 4,2.7 µM,> 10 µM,,
,,,,,,,CC(C)C[C@H](NC(=O)[C@@H]1O[C@H]1C(=O)O)C(=O)NCCCCN=C(N)N,,,,0.028 µM,inhibition [20]: 87%; IC50 [17]: 0.0037 µM
31%,83%,50%,15.1 µM,65%,,,COc1ccc(Nc2nc(NCc3ccccc3)c3ccccc3n2)cc1,18,0.5 µM,9 µM,,IC50 [4]: 52 µM; TDI [21]: Active; inhibition [22]: 58%; TDI [23]: Active
4%,100%,54%,> 50 µM,8%,,,O=C(Nc1ccccc1)c1ccc(Nc2nc(NCc3ccccc3)c3ccccc3n2)cc1,> 6,1.8 µM,> 10 µM,,
,,,18.4 µM,,5%,,Cn1cnc2c(NCc3ccccc3)nc(Nc3ccc(Cl)cc3)nc21,> 1,12 µM,> 10 µM,,
,,,23.8 µM,,11%,,Cn1cnc2c(NCc3ccccc3)nc(Nc3ccccc3)nc21,> 5,2.2 µM,> 10 µM,,
,,,,,,,O=C(Cn1ccnc1[N+](=O)[O-])NCc1ccccc1 [BENZNIDAZOLE],> 9,5.4 µM,> 50 µM,,
,,,25 µM,,10%,,Clc1ccc(Nc2nccc(NCc3ccccc3)n2)cc1,> 1,7 µM,> 10 µM,,inhibition [24]: 10%; inhibition [19]: 34%
,,,> 50 µM,,6%,,c1ccc(CNc2ccnc(Nc3ccccc3)n2)cc1,> 1,7 µM,> 10 µM,,
80%,75%,67%,23.6 µM,62%,48%,95%,Clc1ccc(Nc2nc(NCCN3CCOCC3)c3ccccc3n2)cc1,> 27,370 µM,> 10 µM,2.5 µM,
,,,9 µM,,17%,46%,Fc1cccc(Nc2nc(Nc3ccccc3)nc3ccccc23)c1,> 150,0.07 µM,> 10 µM,,

SMILES,inhibition [1],inhibition [3],inhibition [7],EC50 [9],inhibition [11],inhibition [13],inhibition [14],selectivity ratio [2],EC50 [5],CC50 [6],IC50 [12],also measured
c1ccc(CNc2nc(Nc3ccccc3)nc3ccccc23)cc1,,,50%,17.5 µM,43%,77%,,> 211,0.047 µM,> 10 µM,8 µM,inhibition [15]: Active; Ki [16]: 1.7 µM; IC50 [17]: 17.5 µM; inhibition [18]: Active
c1ccc(CNc2nc(Nc3nccs3)nc3ccccc23)cc1,22%,100%,60%,> 50 µM,53%,100%,100%,> 2,5.6 µM,> 10 µM,16 µM,IC50 [17]: 12.5 µM
Clc1ccc(Nc2nc(NCc3ccccc3)c3ccccc3n2)cc1,1%,42%,48%,93 µM,35%,,,21,0.5 µM,10 µM,2.4 µM,inhibition [19]: 78%; IC50 [17]: 33 µM
Oc1ccc(Nc2nc(NCc3ccccc3)c3ccccc3n2)cc1,40%,81%,56%,> 50 µM,55%,95%,100%,> 2,5.9 µM,> 10 µM,18 µM,IC50 [17]: 23 µM
O=C(c1ccc(Nc2nc(NCc3ccccc3)c3ccccc3n2)cc1)N1CCOCC1,49%,45%,53%,> 50 µM,46%,7%,99%,> 12,0.8 µM,> 10 µM,7 µM,inhibition [15]: Active; Ki [16]: 3.2 µM; IC50 [17]: 22 µM; inhibition [18]: Active
Oc1cccc(Nc2nc(NCc3ccccc3)c3ccccc3n2)c1,33%,65%,54%,13.8 µM,44%,98%,100%,> 11,0.93 µM,10 µM,18 µM,IC50 [17]: 26 µM
